Read-outs that look alike come from different tables or passages of the source.
Tests used:
[1] = system: human mammary carcinoma MX-1 xenograft; parameters: Toxicity toward Nude Mice: key to the marks not given beside the values; details: for Average Body Weight, Day 7: initial weight, first treatment day
Procedure: DMSO was used as a vehicle for epothilones. Each mouse received ≦40 μL DMSO in all experiments.
Athymic nude mice (nu/nu) were used for MX-1 and MCF-7/Adr human mammary carcinoma xenografts. Mice were obtained from Taconic Laboratory Animals and Service (Germantown, N.Y.: outbred, Swiss background).

MCF-7 = assay: SRB cytotoxicity, MCF-7; assay type: cell-based, human; details: Homo sapiens, MCF7, 72 h
In short: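 Monolayer MCF-7 cultures exposed to six to seven drug concentrations in duplicate, then fixed with trichloroacetic acid and stained 30 min with 0.4% sulforhodamine B. Bound dye extracted with unbuffered Tris base, absorbance read at 570 nm; values derived by median-effect plot analysis.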

DC-3F/ADX = assay: cells; assay type: cell-based, hamster; details: DC3F/ADX
In short: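 Cell protein content measured by sulforhodamine B staining after trichloroacetic acid fixation, read at 570 nm; duplicate runs of six to seven concentrations fitted by median-effect analysis. Lines are actinomycin D-resistant DC-3F hamster lung sublines (ADII, ADX), kept under selecting drug in RPMI 1640-10% FBS.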

murine leukemic P388/0 = assay: XTT cytotoxicity, P388/0; assay type: cell-based; details: Mus musculus, P388, 72 h
In short: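 Growth was read by XTT/PMS reduction over 4 h at 37 °C after 72 h of compound treatment, with absorbance at 450 nm and 630 nm. CCRF-CEM, P388 and their resistant sublines, grown continuously with their selecting drugs, were cultured in duplicate at 5×10^4 cells/mL. The medium was RPMI-1640 with 10% FBS.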

[2] = system: human neuroblastoma SK-N-As; assay: SRB cytotoxicity, SK-N-As; assay type: cell-based; details: Homo sapiens, SK-N-AS, 72 h
In short: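 Cellular protein content measured with sulforhodamine B after trichloroacetic acid fixation, read at 570 nm. Each duplicate run used six to seven concentrations, analysed by the median-effect method. Cells were cultured at 37 °C, 5% CO2 in RPMI 1640-10% FBS, and drug-resistant lines were maintained with their selecting agent.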

[3] = Taxol 5 mg/kg on day 8-16 and 18-26, n = 10
[4] = Taxol 24 mg/kg, 6 hr i.v. infusion Q2D x 5 (day 8-16)
[5] = dEpo B 30, Taxol 15 mg/kg, 6 hr i.v. infusion Q2D x 5 (day 8-16), TD: Tumor disappearance
[6] = extended experiment, Desoxyepo B 40, Taxol 5 mg/kg i.p. Q2D day 8-16 and 18-26
[7] = high doses: dEpoB 25, EpoB 0.6, Taxol 10, Vinblastine 0.4 mg/kg i.p. Q2D from day 7
[8] = low doses: dEpoB 15, EpoB 0.3, Taxol 5, Vinblastine 0.2 mg/kg i.p. Q2D day 7-15
[9] = male, athymic nude (nu/nu), outbred, Swiss background, mouse, in vivo

## CC(=O)O[C@H]1C(=O)[C@@]2(C)[C@H]([C@H](OC(=O)c3ccccc3)[C@]3(O)C[C@H](OC(=O)[C@H](O)[C@@H](NC(=O)c4ccccc4)c4ccccc4)C(C)=C1C3(C)C)[C@]1(OC(C)=O)CO[C@@H]1C[C@@H]2O [Taxol ®, paclitaxel]
[1]; 5 mg/kg i.p. Q2Dx5 from day 7, day 11
  Average Body Weight Change: -0.1 g
[1]; 5 mg/kg i.p. Q2Dx5 from day 7, day 13
  Average Body Weight Change: +0.4 g
[1]; 5 mg/kg i.p. Q2Dx5 from day 7, day 15
  Average Body Weight Change: +1.1 g
[1]; 5 mg/kg i.p. Q2Dx5 from day 7, day 17
  Average Body Weight Change: +1.2 g
[1]; 5 mg/kg i.p. Q2Dx5 from day 9
  Tumor Disapp.: 0/6
[1]; 5 mg/kg i.p. Q2Dx5 from day 9, day 13
  Average Body Weight Change: -1.1 g
[1]; 5 mg/kg i.p. Q2Dx5 from day 9, day 15
  Average Body Weight Change: -2.0 g
[1]; 5 mg/kg i.p. Q2Dx5 from day 9, day 17
  Average Body Weight Change: -1.0 g
[1]; 5 mg/kg i.p. Q2Dx5 from day 9, day 19
  Average Body Weight Change: -0.2 g
[1]; 5 mg/kg i.p. d8,10,12,14,16
  Tumor Disappearance: 2/10
[1]; 5 mg/kg i.p. d18-26, extended after d8-16, day 20
  Tumor Disappearance: 0/10^
[1]; 5 mg/kg i.p. d18-26, extended after d8-16, day 22
  Tumor Disappearance: 0/10
[1]; 5 mg/kg i.p. d18-26, extended after d8-16, day 24
  Tumor Disappearance: 0/10
[1]; 5 mg/kg i.p. d18-26, extended after d8-16, day 26
  Tumor Disappearance: 0/10
[1]; 5 mg/kg i.p. d18-26, extended after d8-16, day 28
  Tumor Disappearance: 0/10
[1]; 10 mg/kg i.p. Q2Dx5 from day 7, day 11
  Average Body Weight Change: -2.7 g
[1]; 10 mg/kg i.p. Q2Dx5 from day 7, day 13
  Average Body Weight Change: -1.1 g
[1]; 10 mg/kg i.p. Q2Dx5 from day 7, day 15
  Average Body Weight Change: -0.3 g
[1]; 10 mg/kg i.p. Q2Dx5 from day 7, day 17
  Average Body Weight Change: +2.2 g
[1]; 10 mg/kg i.p. d8,10,12,14,16
  Tumor Disappearance: 2/6
[1]; 10 mg/kg, no extended test
  tumor reappeared on day: Reappeared on day 38
[1]; 10 mg/kg, no extended test, day 16
  Tumor Disappearance: 1/6 on day 16
[1]; MX-1, dEpoB 30 mg/kg Q2D x 6, Taxol 15 mg/kg Q2D x 6
  Lowest Average Tumor Size (T/C): 0 T/C
[1]; Taxol 5 mg/kg i.p. Q2Dx5 from day 8
  tumor volume reduction: 53%
[1]; [3]
  Tumor Size (group average), Day 8: 17 mm^3
  Tumor Size (group average), Day 10: 45 mm^3
  Tumor Size (group average), Day 12: 54 mm^3
  Tumor Size (group average), Day 14: 128 mm^3
  Tumor Size (group average), Day 16: 311 mm^3
  Tumor Size (group average), Day 18: 596 mm^3
  Tumor Size (group average), Day 20: 1114 mm^3
  Tumor Size (group average), Day 22: 1930 mm^3
  Tumor Size (group average), Day 24: 2285 mm^3
[1]; Taxol 10 mg/kg, no extended test
  Tumor reappearance (Reappear on day): Reappear on day 38
[1]; Taxol 10 mg/kg, on day 16, no extended test
  Tumor Disappearance: 1/6 on day 16,
[1]; Taxol 15 mg/kg i.v. Q2Dx5 from day 9
  Tumor Disapp.: 2/6
[1]; [4]
  Average Body Weight (change), Day 14: -4.8 g
  Average Body Weight (change), Day 16: -5.3 g
  Average Body Weight (change), Day 18: -6.0 g
  Average Body Weight (change), Day 20: -6.2 g
  Tumor Disappearance: 4/4
[1]; Taxol 24 mg/kg, 6 hr i.v. infusion Q2D x 5 (day 8-16), TD: Tumor disappearance
  Average Tumor Size (T/C), Day 14: 0.03 T/C
[1]; dEpo B 30, Taxol 15 mg/kg, 6 hr i.v. infusion Q2D x 5 (day 8-16)
  Tumor Disappearance: 4/4
[1]; [5]
  Average Tumor Size (T/C), Day 14: 0.06 T/C
  Average Tumor Size (T/C), Day 16: 0.01 T/C
[1]; [6]
  Average Body Weight Change, Day 20: -1.6 g
  Average Body Weight Change, Day 22: -0.3 g
  Average Body Weight Change, Day 24: +0.1 g
  Average Body Weight Change, Day 26: -0.6 g
  Average Body Weight Change, Day 28: -0.4 g
  Tumor Disappearance, Day 20: 0/10
  Tumor Disappearance, Day 22: 0/10
  Tumor Disappearance, Day 24: 0/10
  Tumor Disappearance, Day 26: 0/10
  Tumor Disappearance, Day 28: 0/10
[1]; [7]
  Average Tumor Volume (T/C), Day 11: 0.43 T/C
  Average Tumor Volume (T/C), Day 13: 0.37 T/C
  Average Tumor Volume (T/C), Day 15: 0.12 T/C
  Average Tumor Volume (T/C), Day 17: 0.11 T/C
  Average Body Weight, Day 7: 27.6 g
[1]; [8]
  Average Body Weight, Day 7: 26.9 g
  Average Tumor Volume (T/C), Day 11: 0.54 T/C
  Average Tumor Volume (T/C), Day 13: 0.46 T/C
  Average Tumor Volume (T/C), Day 15: 0.40 T/C
  Average Tumor Volume (T/C), Day 17: 0.45 T/C
[1]; male, athymic nude (nu/nu), mouse, in vivo
  # Mice Died: 0/10
[1]; [9]
  # Died of toxicity: 2/10
  # Mice Died: 1/6
  lethality: 2/6
  lethality (mice died of toxicity): 2/10
  mice died of toxicity: 2 out of 10
[1]; mouse, in vivo
  Tumor Disappearance: 5/5
  mice died of toxicity: four out of seven
[1]; mouse, in vivo, ip, 15 mg/kg
  Toxicity toward Nude Mice: ++++
[1]; mouse, in vivo, ip, 35 mg/kg
  Toxicity toward Nude Mice: ++
[1]; mouse, in vivo, iv, 15 mg/kg
  Toxicity toward Nude Mice: ++
[1]; mouse, in vivo, iv, 24 mg/kg
  Toxicity toward Nude Mice: ++
[1]; mouse, in vivo, iv, 30 mg/kg
  Toxicity toward Nude Mice: ++
[1]; paclitaxel 5 mg/kg
  reduction in tumor volume: 55%
[1]; paclitaxel 5 mg/kg Q2Dx5 i.p. d8-16 and d18-26, n=10
  average tumor size on day 24: 2285±97 mm^3
[1]; paclitaxel 10 mg/kg
  tumor reduction: 89%
MCF-7
  IC50: 0.0033 µM
DC-3F/ADX; 72 h, Table 1C, SRB
  IC50: 32 µM
DC-3F/ADX; Table 3
  IC50: 32 µM
DC-3F/ADX; relative potency ordering
  IC50: 32 µM
Murine leukemic P388/0
  IC50: 0.0029 µM
[2]
  IC50: 0.0016 µM

From US6603023B2 (priority 1996, dated 2003)
